# Experimental data reported in patent US11292770B2, “Pyridazinone herbicides” (FMC Corporation, priority 2017, dated 2022).
# Tested on: corn (Zea mays)
# Assay: Test A postemergence, corn
# Format: in vivo
# Conditions: 125 g ai/ha, 0 to 100 scale
# Description: (§1) Seeds of plant species selected from barnyardgrass (Echinochloa crus-galli), kochia (Kochia scoparia), ragweed (common ragweed, Ambrosia elation), ryegrass, Italian (Italian ryegrass, Lolium multiflorum), foxtail, green (green foxtail, Setaria viridis), and pigweed (Amaranthus retroflexus) were planted into a blend of loam soil and sand and treated preemergence with a directed soil spray using test chemicals formulated in a non-phytotoxic solvent mixture which included a surfactant. At the same time, plants selected from these weed species and also wheat (Triticum aestivum), corn (Zea mays), blackgrass (Alopecurus myosuroides), and galium (catchweed bedstraw, Galium aparine) were planted in pots containing the same blend of loam soil and sand and treated with postemergence applications of test chemicals formulated in the same manner Plants ranged in height from 2 to 10 cm and were in the one- to two-leaf stage for the postemergence treatment. Treated plants and untreated controls were maintained in a greenhouse for approximately 10 d, after which time all treated plants were compared to untreated controls and visually evaluated for injury. Plant response ratings, summarized in Table A, are based on a 0 to 100 scale where 0 is no effect and 100 is complete control. A dash (—) response means no test result.
row,Compound,"Plant response rating, Corn"
1,"Cn1nc(Cl)c(O)c(-c2c3ccccc3cc3ccccc23)c1=O [Compound 1, 4-(9-anthracenyl)-6-chloro-5-hydroxy-2-methyl-3(2H)-pyridazinone]",0

# Tested on: ducksalad (Heteranthera limosa)
# Assay: Test B flooded paddy test, ducksalad
# Format: in vivo
# Conditions: Flood, 250 g ai/ha; scale of 0 to 100
# Method: Plant species in the flooded paddy test selected from rice (Oryza sativa), sedge, umbrella (small-flower umbrella sedge, Cyperus difformis), ducksalad (Heteranthera limosa), and barnyardgrass (Echinochloa crus-galli) were grown to the 2-leaf stage for testing. At the time of treatment, test pots were flooded to 3 cm above the soil surface, treated by application of test compounds directly to the paddy water, and then maintained at that water depth for the duration of the test. Treated plants and controls were maintained in a greenhouse for 13 to 15 d, after which time all species were compared to controls and visually evaluated. Plant response ratings, summarized in Table B, are based on a scale of 0 to 100 where 0 is no effect and 100 is complete control. A dash (—) response means no test result.
row,Compound,"Plant response rating, Ducksalad"
1,"Cn1nc(Cl)c(O)c(-c2c3ccccc3cc3ccccc23)c1=O [Compound 1, 4-(9-anthracenyl)-6-chloro-5-hydroxy-2-methyl-3(2H)-pyridazinone]",85

# Tested on: foxtail, green (green foxtail, Setaria viridis)
# Assay: Test A postemergence, foxtail, green
# Format: in vivo
# Conditions: 31 g ai/ha, 0 to 100 scale
# Description: as §1
row,Compound,"Plant response rating, Foxtail, Green"
1,"Cn1nc(Cl)c(O)c(-c2c3ccccc3cc3ccccc23)c1=O [Compound 1, 4-(9-anthracenyl)-6-chloro-5-hydroxy-2-methyl-3(2H)-pyridazinone]",10

# Same assay, conditions: 125 g ai/ha, 0 to 100 scale
row,Compound,"Plant response rating, Foxtail, Green"
1,"Cn1nc(Cl)c(O)c(-c2c3ccccc3cc3ccccc23)c1=O [Compound 1, 4-(9-anthracenyl)-6-chloro-5-hydroxy-2-methyl-3(2H)-pyridazinone]",50

# Tested on: barnyardgrass (Echinochloa crus-galli)
# Assay: Test A preemergence, barnyardgrass
# Format: in vivo
# Conditions: 31 g ai/ha, 0 to 100 scale
# Description: as §1
row,Compound,"Plant response rating, Barnyardgrass"
1,"Cn1nc(Cl)c(O)c(-c2c3ccccc3cc3ccccc23)c1=O [Compound 1, 4-(9-anthracenyl)-6-chloro-5-hydroxy-2-methyl-3(2H)-pyridazinone]",0

# Same assay, conditions: 125 g ai/ha, 0 to 100 scale
row,Compound,"Plant response rating, Barnyardgrass"
1,"Cn1nc(Cl)c(O)c(-c2c3ccccc3cc3ccccc23)c1=O [Compound 1, 4-(9-anthracenyl)-6-chloro-5-hydroxy-2-methyl-3(2H)-pyridazinone]",0

# Tested on: pigweed (Amaranthus retroflexus)
# Assay: Test A postemergence, pigweed
# Format: in vivo
# Conditions: 31 g ai/ha, 0 to 100 scale
# Description: as §1
row,Compound,"Plant response rating, Pigweed"
1,"Cn1nc(Cl)c(O)c(-c2c3ccccc3cc3ccccc23)c1=O [Compound 1, 4-(9-anthracenyl)-6-chloro-5-hydroxy-2-methyl-3(2H)-pyridazinone]",90

# Same assay, conditions: 125 g ai/ha, 0 to 100 scale
row,Compound,"Plant response rating, Pigweed"
1,"Cn1nc(Cl)c(O)c(-c2c3ccccc3cc3ccccc23)c1=O [Compound 1, 4-(9-anthracenyl)-6-chloro-5-hydroxy-2-methyl-3(2H)-pyridazinone]",100

# Tested on: galium (catchweed bedstraw, Galium aparine)
# Assay: Test A postemergence, galium
# Format: in vivo
# Conditions: 31 g ai/ha, 0 to 100 scale
# Description: as §1
row,Compound,"Plant response rating, Galium"
1,"Cn1nc(Cl)c(O)c(-c2c3ccccc3cc3ccccc23)c1=O [Compound 1, 4-(9-anthracenyl)-6-chloro-5-hydroxy-2-methyl-3(2H)-pyridazinone]",70

# Same assay, conditions: 125 g ai/ha, 0 to 100 scale
row,Compound,"Plant response rating, Galium"
1,"Cn1nc(Cl)c(O)c(-c2c3ccccc3cc3ccccc23)c1=O [Compound 1, 4-(9-anthracenyl)-6-chloro-5-hydroxy-2-methyl-3(2H)-pyridazinone]",90

# Tested on: kochia (Kochia scoparia)
# Assay: Test A postemergence, kochia
# Format: in vivo
# Conditions: 31 g ai/ha, 0 to 100 scale
# Description: as §1
row,Compound,"Plant response rating, Kochia"
1,"Cn1nc(Cl)c(O)c(-c2c3ccccc3cc3ccccc23)c1=O [Compound 1, 4-(9-anthracenyl)-6-chloro-5-hydroxy-2-methyl-3(2H)-pyridazinone]",10

# Same assay, conditions: 125 g ai/ha, 0 to 100 scale
row,Compound,"Plant response rating, Kochia"
1,"Cn1nc(Cl)c(O)c(-c2c3ccccc3cc3ccccc23)c1=O [Compound 1, 4-(9-anthracenyl)-6-chloro-5-hydroxy-2-methyl-3(2H)-pyridazinone]",20

# Tested on: foxtail, green (green foxtail, Setaria viridis)
# Assay: Test A preemergence, foxtail, green
# Format: in vivo
# Conditions: 31 g ai/ha, 0 to 100 scale
# Description: as §1
row,Compound,"Plant response rating, Foxtail, Green"
1,"Cn1nc(Cl)c(O)c(-c2c3ccccc3cc3ccccc23)c1=O [Compound 1, 4-(9-anthracenyl)-6-chloro-5-hydroxy-2-methyl-3(2H)-pyridazinone]",0

# Same assay, conditions: 125 g ai/ha, 0 to 100 scale
row,Compound,"Plant response rating, Foxtail, Green"
1,"Cn1nc(Cl)c(O)c(-c2c3ccccc3cc3ccccc23)c1=O [Compound 1, 4-(9-anthracenyl)-6-chloro-5-hydroxy-2-methyl-3(2H)-pyridazinone]",0

# Tested on: wheat (Triticum aestivum)
# Assay: Test A postemergence, wheat
# Format: in vivo
# Conditions: 31 g ai/ha, 0 to 100 scale
# Description: as §1
row,Compound,"Plant response rating, Wheat"
1,"Cn1nc(Cl)c(O)c(-c2c3ccccc3cc3ccccc23)c1=O [Compound 1, 4-(9-anthracenyl)-6-chloro-5-hydroxy-2-methyl-3(2H)-pyridazinone]",0

# Same assay, conditions: 125 g ai/ha, 0 to 100 scale
row,Compound,"Plant response rating, Wheat"
1,"Cn1nc(Cl)c(O)c(-c2c3ccccc3cc3ccccc23)c1=O [Compound 1, 4-(9-anthracenyl)-6-chloro-5-hydroxy-2-methyl-3(2H)-pyridazinone]",10

# Tested on: ryegrass, Italian (Italian ryegrass, Lolium multiflorum)
# Assay: Test A postemergence, ryegrass, Italian
# Format: in vivo
# Conditions: 31 g ai/ha, 0 to 100 scale
# Description: as §1
row,Compound,"Plant response rating, Ryegrass, Italian"
1,"Cn1nc(Cl)c(O)c(-c2c3ccccc3cc3ccccc23)c1=O [Compound 1, 4-(9-anthracenyl)-6-chloro-5-hydroxy-2-methyl-3(2H)-pyridazinone]",20

# Same assay, conditions: 125 g ai/ha, 0 to 100 scale
row,Compound,"Plant response rating, Ryegrass, Italian"
1,"Cn1nc(Cl)c(O)c(-c2c3ccccc3cc3ccccc23)c1=O [Compound 1, 4-(9-anthracenyl)-6-chloro-5-hydroxy-2-methyl-3(2H)-pyridazinone]",40
